Tests used:
Assay type in all cases: in vivo, rat
male Sprague-Dawley rats [1] = assay: Rodent EEG studies, all three studies together
Protocol: (§1) All rodent electroencephalograph (EEG) studies were performed at SRI International. Three groups of eight male Sprague-Dawley rats (300±25 g; Charles River, Wilmington, MA) were implanted with chronic recording devices (F40-EET, Data Sciences Inc., St Paul, MN) for continuous recordings of EEG, electromyograph (EMG), core body temperature (Tcore), and LMA via telemetry as previously described. Data recording and scoring were performed as previously reported (see also Supplemental Material and Methods). The EEG and EMG data were scored in 10 sec epochs for waking (W), rapid eye movement sleep (REM), and non-REM sleep (NR). Tcore and LMA (counts per minute) were analyzed as hourly means. Data from the EEG studies are reported in hourly means such that the hourly time ZT1 refers to the hour between time points ZT0 and ZT1.
(§2) For each of the three separate studies, a repeated measures counter-balanced design was employed in which each rat received five separate dosings. […] All dosings were administered ip in a volume of 2 ml/kg. A minimum of 3 d elapsed between doses. Dosing occurred during the middle of the rats’ normal active period at the start of ZT19 and was typically completed within 10 min. Animals were continuously recorded for 6 h prior to dosing and for 18 h following dosing.

male Sprague-Dawley rats [2] = assay: EEG/EMG/Tcore/LMA telemetry sleep study 3 (almorexant vs ZOL); details: ZOL 10 mg/kg ip
Protocol: as §1, §2

male Sprague-Dawley rats [3] = assay: EEG/EMG/Tcore/LMA telemetry sleep study 2 (EMPA vs ZOL); details: ZOL 10 mg/kg ip
Protocol: as §1, §2

male Sprague-Dawley rats [4] = assay: EEG/EMG/Tcore/LMA telemetry sleep study 1 (SB-334867 vs ZOL); details: 7.5 mg/kg ip
Protocol: as §1, §2

Cc1ccc(-c2nc3ccc(C)cn3c2CC(=O)N(C)C)cc1 [ZOL, N,N,6-Trimehtyl-2-(methylphenyl)-imidazol[1,2-a]pyridine-3-acetamide]
NR latency (in words) (male Sprague-Dawley rats [1]; ZOL 7.5 or 10 mg/kg ip, all three experiments): decrease in NR latency | cumulative NR (in words) (male Sprague-Dawley rats [1]; all three experiments): increased cumulative NR | cumulative REM (in words) (male Sprague-Dawley rats [1]; all three experiments): decreased cumulative REM | Tcore (in words) (male Sprague-Dawley rats [1]; all three studies, followed by rebound increase in the light period): largest declines in Tcore | EEG delta power during NR (in words) (male Sprague-Dawley rats [1]; compared to vehicle control): significant effects on EEG delta power during NR | NR bout duration (male Sprague-Dawley rats [2]; 6 h Average): 1.99 ± 0.16 | REM bout duration (male Sprague-Dawley rats [2]; 6 h Average): 0.97 ± 0.12 | W bout duration (male Sprague-Dawley rats [2]; 6 h Average): 2.88 ± 0.16 | Number of NR bouts (male Sprague-Dawley rats [2]; 6 h Total): 77.63 ± 3.56 | Number of REM bouts (male Sprague-Dawley rats [2]; 6 h Total): 7.38 ± 1.68 | Number of W bouts (male Sprague-Dawley rats [2]; 6 h Total): 68.00 ± 4.23 | NR bout duration (male Sprague-Dawley rats [2]; ZT19): 3.53 ± 0.71 | Number of REM bouts (male Sprague-Dawley rats [2]; ZT19): 0.50 ± 0.27 | Number of W bouts (male Sprague-Dawley rats [2]; ZT19): 8.75 ± 1.56 | REM bout duration (male Sprague-Dawley rats [2]; ZT19): 0.33 ± 0.10 | W bout duration (male Sprague-Dawley rats [2]; ZT19): 4.15 ± 0.82 | NR bout duration (male Sprague-Dawley rats [2]; ZT20): 2.90 ± 0.19 | Number of NR bouts (male Sprague-Dawley rats [2]; ZT20): 11.63 ± 1.36 | Number of REM bouts (male Sprague-Dawley rats [2]; ZT20): 0.50 ± 0.38 | Number of W bouts (male Sprague-Dawley rats [2]; ZT20): 10.00 ± 0.71 | REM bout duration (male Sprague-Dawley rats [2]; ZT20): 2.25 ± 0.25 | W bout duration (male Sprague-Dawley rats [2]; ZT20): 2.31 ± 0.33 | NR bout duration (male Sprague-Dawley rats [2]; ZT21): 2.84 ± 0.34 | Number of NR bouts (male Sprague-Dawley rats [2]; ZT21): 11.88 ± 1.60 | Number of W bouts (male Sprague-Dawley rats [2]; ZT21): 10.25 ± 1.56 | W bout duration (male Sprague-Dawley rats [2]; ZT21): 2.69 ± 0.42 | NR bout duration (male Sprague-Dawley rats [2]; ZT22): 2.27 ± 0.44 | Number of NR bouts (male Sprague-Dawley rats [2]; ZT22): 13.50 ± 1.88 | Number of REM bouts (male Sprague-Dawley rats [2]; ZT22): 2.50 ± 0.82 | Number of W bouts (male Sprague-Dawley rats [2]; ZT22): 10.50 ± 1.21 | W bout duration (male Sprague-Dawley rats [2]; ZT22): 3.13 ± 0.59 | NR bout duration (male Sprague-Dawley rats [2]; ZT23): 1.29 ± 0.20 | Number of NR bouts (male Sprague-Dawley rats [2]; ZT23): 17.25 ± 3.27 | Number of REM bouts (male Sprague-Dawley rats [2]; ZT23): 1.75 ± 0.41 | Number of W bouts (male Sprague-Dawley rats [2]; ZT23): 15.13 ± 3.17 | W bout duration (male Sprague-Dawley rats [2]; ZT23): 3.85 ± 1.44 | NR bout duration (male Sprague-Dawley rats [2]; ZT24): 1.03 ± 0.12 | Number of NR bouts (male Sprague-Dawley rats [2]; ZT24): 13.13 ± 2.37 | Number of REM bouts (male Sprague-Dawley rats [2]; ZT24): 1.00 ± 0.42 | Number of W bouts (male Sprague-Dawley rats [2]; ZT24): 12.63 ± 2.40 | REM bout duration (male Sprague-Dawley rats [2]; ZT24): 0.66 ± 0.29 | W bout duration (male Sprague-Dawley rats [2]; ZT24): 4.15 ± 0.83 | NR bout duration (male Sprague-Dawley rats [3]; 6 h Average): 1.80 ± 0.13 | REM bout duration (male Sprague-Dawley rats [3]; 6 h Average): 0.88 ± 0.07 | W bout duration (male Sprague-Dawley rats [3]; 6 h Average): 3.94 ± 0.29 | Number of NR bouts (male Sprague-Dawley rats [3]; 6 h Total): 73.70 ± 4.34 | Number of REM bouts (male Sprague-Dawley rats [3]; 6 h Total): 12.10 ± 1.30 | Number of W bouts (male Sprague-Dawley rats [3]; 6 h Total): 55.80 ± 3.84 | NR bout duration (male Sprague-Dawley rats [3]; ZT19): 3.89± 0.68 | Number of NR bouts (male Sprague-Dawley rats [3]; ZT19): 8.90 ± 1.06 | Number of REM bouts (male Sprague-Dawley rats [3]; ZT19): 0.60± 0.31 | Number of W bouts (male Sprague-Dawley rats [3]; ZT19): 8.10± 0.97 | REM bout duration (male Sprague-Dawley rats [3]; ZT19): 0.65± 0.16 | W bout duration (male Sprague-Dawley rats [3]; ZT19): 3.64± 0.51 | NR bout duration (male Sprague-Dawley rats [3]; ZT20): 3.13± 0.44 | Number of NR bouts (male Sprague-Dawley rats [3]; ZT20): 11.60± 1.38 | Number of REM bouts (male Sprague-Dawley rats [3]; ZT20): 1.10± 0.48 | Number of W bouts (male Sprague-Dawley rats [3]; ZT20): 8.60± 1.59 | REM bout duration (male Sprague-Dawley rats [3]; ZT20): 0.96± 0.27 | W bout duration (male Sprague-Dawley rats [3]; ZT20): 3.23± .037 | NR bout duration (male Sprague-Dawley rats [3]; ZT21): 1.81± 0.27 | Number of NR bouts (male Sprague-Dawley rats [3]; ZT21): 16.40± 2.10 | Number of REM bouts (male Sprague-Dawley rats [3]; ZT21): 3.30± 0.75 | Number of W bouts (male Sprague-Dawley rats [3]; ZT21): 11.00± 1.74 | REM bout duration (male Sprague-Dawley rats [3]; ZT21): 0.66± 0.09 | W bout duration (male Sprague-Dawley rats [3]; ZT21): 3.10± .059 | NR bout duration (male Sprague-Dawley rats [3]; ZT22): 1.34± 0.17 | Number of NR bouts (male Sprague-Dawley rats [3]; ZT22): 16.10± 1.11 | Number of REM bouts (male Sprague-Dawley rats [3]; ZT22): 4.80± 0.55 | Number of W bouts (male Sprague-Dawley rats [3]; ZT22): 12.10± 0.85 | REM bout duration (male Sprague-Dawley rats [3]; ZT22): 0.97± 0.10 | W bout duration (male Sprague-Dawley rats [3]; ZT22): 2.59± 0.31 | NR bout duration (male Sprague-Dawley rats [3]; ZT23): 0.98± 0.11 | Number of NR bouts (male Sprague-Dawley rats [3]; ZT23): 13.00± 1.64 | Number of REM bouts (male Sprague-Dawley rats [3]; ZT23): 1.90± 0.35 | Number of W bouts (male Sprague-Dawley rats [3]; ZT23): 8.90± 1.15 | W bout duration (male Sprague-Dawley rats [3]; ZT23): 5.59 ±0.93 | NR bout duration (male Sprague-Dawley rats [3]; ZT24): 0.92± 0.20 | Number of NR bouts (male Sprague-Dawley rats [3]; ZT24): 7.50± 1.58 | Number of REM bouts (male Sprague-Dawley rats [3]; ZT24): 0.40± 0.22 | Number of W bouts (male Sprague-Dawley rats [3]; ZT24): 6.20± 1.31 | REM bout duration (male Sprague-Dawley rats [3]; ZT24): 0.58± 0.14 | W bout duration (male Sprague-Dawley rats [3]; ZT24): 12.90± 3.56 | NR bout duration (male Sprague-Dawley rats [4]; 6 h Average): 1.63 ± 0.07 | REM bout duration (male Sprague-Dawley rats [4]; 6 h Average): 0.99 ± 0.09 | W bout duration (male Sprague-Dawley rats [4]; 6 h Average): 4.50 ± 0.41 | Number of NR bouts (male Sprague-Dawley rats [4]; 6 h Total): 62.88 ± 3.98 | Number of REM bouts (male Sprague-Dawley rats [4]; 6 h Total): 13.13 ± 1.32 | Number of W bouts (male Sprague-Dawley rats [4]; 6 h Total): 56.0 ± 4.43 | NR bout duration (male Sprague-Dawley rats [4]; ZT19): 3.33 ± 0.78 | Number of NR bouts (male Sprague-Dawley rats [4]; ZT19): 7.50 ± 1.43 | Number of REM bouts (male Sprague-Dawley rats [4]; ZT19): 1.38 ± 0.46 | Number of W bouts (male Sprague-Dawley rats [4]; ZT19): 6.75 ± 1.31 | REM bout duration (male Sprague-Dawley rats [4]; ZT19): 0.77 ± 0.20 | NR bout duration (male Sprague-Dawley rats [4]; ZT20): 2.95 ± 0.43 | Number of NR bouts (male Sprague-Dawley rats [4]; ZT20): 7.75 ± 1.29 | Number of REM bouts (male Sprague-Dawley rats [4]; ZT20): 0.88 ± 0.48 | Number of W bouts (male Sprague-Dawley rats [4]; ZT20): 6.00 ± 0.82 | REM bout duration (male Sprague-Dawley rats [4]; ZT20): 0.76 ± 0.19 | NR bout duration (male Sprague-Dawley rats [4]; ZT21): 1.87 ± 0.20 | Number of NR bouts (male Sprague-Dawley rats [4]; ZT21): 17.25 ± 2.00 | Number of REM bouts (male Sprague-Dawley rats [4]; ZT21): 4.50 ± 0.78 | Number of W bouts (male Sprague-Dawley rats [4]; ZT21): 12.00 ± 1.95 | REM bout duration (male Sprague-Dawley rats [4]; ZT21): 1.28 ± 0.11 | W bout duration (male Sprague-Dawley rats [4]; ZT21): 2.44 ± 0.75 | NR bout duration (male Sprague-Dawley rats [4]; ZT22): 1.01 ± 0.10 | Number of NR bouts (male Sprague-Dawley rats [4]; ZT22): 14.88 ± 1.88 | Number of REM bouts (male Sprague-Dawley rats [4]; ZT22): 1.25 ± 0.75 | Number of W bouts (male Sprague-Dawley rats [4]; ZT22): 14.75 ± 2.49 | W bout duration (male Sprague-Dawley rats [4]; ZT22): 3.30 ± 0.66 | NR bout duration (male Sprague-Dawley rats [4]; ZT23): 0.82 ± 0.10 | Number of NR bouts (male Sprague-Dawley rats [4]; ZT23): 7.25 ± 1.06 | Number of REM bouts (male Sprague-Dawley rats [4]; ZT23): 1.00 ± 0.38 | Number of W bouts (male Sprague-Dawley rats [4]; ZT23): 7.75 ± 1.19 | REM bout duration (male Sprague-Dawley rats [4]; ZT23): 0.72 ± 0.26 | NR bout duration (male Sprague-Dawley rats [4]; ZT24): 0.84 ± 0.09 | Number of NR bouts (male Sprague-Dawley rats [4]; ZT24): 8.25 ± 1.75 | Number of W bouts (male Sprague-Dawley rats [4]; ZT24): 7.88 ± 1.63 | REM bout duration (male Sprague-Dawley rats [4]; ZT24): 0.86 ± 0.24 | W bout duration (male Sprague-Dawley rats [4]; ZT24): 12.51 ± 0.82
